Test results as given in patent publication US12029734B2, “Compositions and methods for treatment of symptoms in Parkinson's disease patients” (Tyler Medical Research, LLC, priority 2011, dated 2024).
Like-named read-outs stand apart in the source and are kept apart here.

Tests used:
[1] = cited from earlier work
[2] = test system: patients with idiopathic PD and LIDS
Source text: A total of 65 patients with idiopathic PD and LIDS were enrolled in a phase II study. Major entry criteria were as follows: 1) Hoehn and Yahr Stage II-IV while in “on” state, 2) had moderately to severely disabling LIDS>25% of waking day as determined by a rating of >2 on each of Questions 32 and 33 of the Unified Parkinson's Disease Rating Scale (UPDRS), 3) be on stable doses of levodopa and other medicines for PD for >30 days, 4) have a negative screening urine test for cotinine, and 5) not be a smoker or previous smoker or regular exposure to second-hand smoke. The study consisted of 3 phases: a treatment period of 10 weeks, a 9-day drug taper period, and a 5-day follow-up period. Subjects were randomly assigned to receive either nicotine or placebo (pbo). Dosing began at 1 mg q6 hr and was escalated at 2-week intervals to 6 mg q6 hr (24 mg/day). All subjects were allowed to take ondansetron as rescue medication for the treatment of nausea and/or vomiting for the first 3 days of each dose escalation. Subjects were maintained on 24 mg/day for 4 weeks.
Efficacy was assessed using the UPDRS (total of Parts II+III+IV), sum of Q32+Q33, Unified Dyskiensia Rating Scale (UDysRS) total scores and subscores, Lang-Fahn Dyskinesia Activities of Daily Living Scale (LF-ADL), physician and patient ratings of improvement from baseline in dyskinesias on 7-point CGI-C and PGI-C scales, and responder analyses (subjects with >25% improvement from baseline) on UDysRS total score and LF-ADL, and % subjects with any improvement on PGI-C and CGI-C.
The safety population for all safety analyses consisted of all subjects who received at least 1 dose of nicotine or placebo.

[3] = test system: patients with idiopathic PD and LIDS; assay: Phase II clinical trial of nicotine: safety assessments (AEs, laboratory tests, serum cotinine, ECG, JayMidi, MNWS-R); settings: human, in vivo
Protocol: (§1) Safety was assessed by incidences of adverse experiences (AE), clinical laboratory tests, serum cotinine, ECG and vital signs. Impulsive symptoms were assessed using the Jay Modified Minnesota Impulsive Disorders Interview (JayMidi). Withdrawal symptoms were evaluated using the Minnesota Nicotine Withdrawal Scale (MNWS-R).

[4] = test system: patients with idiopathic PD and LIDS; remark: listed apart in the source
Protocol: as §1

Structure (SMILES): N[C@@H](Cc1ccc(O)c(O)c1)C(=O)O [Levodopa, L-3,4-dihydroxyphenylalanine (S)-2-amino-3-(3,4-dihydroxyphenyl)propanoic acid]
- solubility in water [1]: slightly soluble in water

Structure (SMILES): CN1CCC[C@H]1c1cccnc1 [nicotine, 3-[(2S)-1-methylpyrrolidin-2-yl]pyridine]
- UPDRS total scores ([2]; 10 weeks of treatment): did not worsen, but improved
- number of UDysRS subscores improved (mean changes from baseline compared to pbo) ([2]; Week 10 (FIG. 3)): 9 of 10
- UPDRS Part III score, maximum mean improvement ([2]; Week 10, change from baseline (FIG. 1)): 2.0 points
- LF-ADL responders (>25% improvement from baseline) ([2]; Week 10, p=0.04 versus pbo): 56%
- CGI-C pattern compared to pbo ([2]; after 10 weeks (FIG. 4)): similar, but not statistically significant pattern
- PGI-C: patients rating themselves as having any degree of improvement ([2]; after 10 weeks, p=0.004 versus pbo (FIG. 4)): 78%
- efficacy on LIDS on the majority of patient- and physician-rated outcome measures ([2]; compared to pbo): trend or statistically significant improvement
- UPDRS mean change from baseline to Week 10 ([2]; compared to placebo, every visit during drug treatment): numerical improvement
- UDysRS total score ([2]; every study visit during the drug-treatment period (FIG. 2)): Mean improvement from baseline and greater separation from pbo
- PGI-C: distribution of subjects in each category compared to pbo ([2]; p=0.02): significant
- ambulation (UDysRS subscore) ([2]; versus pbo, p=0.01): Statistically significant improvement
- changes in ECG parameters [3]: no clinically relevant changes
- withdrawal symptoms as assessed by MNWS-R, clinical relevance [3]: not a clinically relevant issue
- overall safety and tolerability ([4]; PD patients with LIDS, oral, escalated from 1 mg q6 hr to 6 mg q6 hr (24 mg/day), 10 weeks): generally safe and well-tolerated
- withdrawal symptoms, MNWS-R score (maximal score 60) ([4]; Week 10 (end of drug treatment)): 7.5
- relation of SAEs to study medication ([4]; all SAEs): unrelated to study medication
- withdrawal symptoms, MNWS-R score (maximal score 60) ([4]; end of the follow-up period): 5.4
- occurrences of impulsivity disorders (positive score on any JayMidi module) ([4]; nicotine group): 1 subject
- overall incidence of serious AEs (SAE) ([4]; nicotine group): 4 subjects
- percentage of subjects reporting treatment-related AEs ([4]; nicotine group): 54%
- subjects who used rescue medication (ondansetron) ([4]; nicotine group): Twenty-nine
- treatment-emergent AE: constipation, subjects ([4]; nicotine group): 11%
- treatment-emergent AE: dizziness, subjects ([4]; nicotine group): 11%
- treatment-emergent AE: fatigue, subjects ([4]; nicotine group): 9%
- treatment-emergent AE: nausea, subjects ([4]; nicotine group): 31%
- treatment-emergent AE: nightmares, subjects ([4]; nicotine group): 6%
- treatment-emergent AE: non-specific pain, subjects ([4]; nicotine group): 9%
- treatment-emergent AE: vomiting, subjects ([4]; nicotine group): 6%
- subjects withdrawn due to treatment-related AEs ([4]; nicotine group, n=35 randomized): 6 subjects
- subjects withdrawn due to treatment-related AEs ([4]; on 4 mg/day): 1 subject
- subjects withdrawn due to treatment-related AEs ([4]; on 8 mg/day): 1 subject
- subjects withdrawn due to treatment-related AEs ([4]; on 16 mg/day): 2 subjects
- subjects withdrawn due to treatment-related AEs ([4]; on 24 mg/day): 2 subjects
- serum cotinine levels ([4]; patients treated with nicotine, dose escalation): increased with increasing dose
- intensity of the majority of adverse events ([4]; transient in duration): mild or moderate in intensity
